The values below come from patent publication US20090018148A1, “Xanthine Derivatives, Processes For Preparing Them And Their Uses” (UCB PHARMA, S.A., priority 2005, published 2009).

Broadly, the melting point is the temperature, or range, at which the solid turns liquid. On to `CCOC(=O)C(CC)Sc1nc2c(c(=O)n(C)c(=O)n2C)n1Cc1ccccc1` (racemic) [Compound 1, ethyl 2-[(7-benzyl-1,3-dimethyl-2,6-dioxo-2,3,6,7-tetrahydro-1H-purin-8-yl)thio]butanoate], for which the melting point worked out at 72 °C.

Compound `CCOC(=O)C(CC)Sc1nc2c(c(=O)n(CCOC)c(=O)n2C)n1Cc1cccc(Br)c1` (racemic) [Compound 3, ethyl 2-{[7-(3-bromobenzyl)-1-(2-methoxyethyl)-3-methyl-2,6-dioxo-2,3,6,7-tetrahydro-1H-purin-8-yl]thio}butanoate] had a melting point of 58 °C.

In turn, `CCOC(=O)C(CC)Sc1nc2[nH]c(=O)[nH]c(=O)c2n1Cc1cccc(Br)c1` (racemic) [Compound 4, ethyl 2-{[7-(3-bromobenzyl)-2,6-dioxo-2,3,6,7-tetrahydro-1H-purin-8-yl]thio}butanoate] returned a melting point of 90.1 °C.

`CCOC(=O)C(CC)Sc1nc2c(c(=O)n(C)c(=O)n2C)n1Cc1cccc(Br)c1` (racemic) [Compound 5, ethyl 2-{[7-(3-bromobenzyl)-1,3-dimethyl-2,6-dioxo-2,3,6,7-tetrahydro-1H-purin-8-yl]thio}butanoate]: the melting point amounted to 76 °C.

For `CCOC(=O)C(CC)Sc1nc2c(c(=O)n(C)c(=O)n2C)n1Cc1ccccc1Br` (racemic) [Compound 6, ethyl 2-{[7-(2-bromobenzyl)-1,3-dimethyl-2,6-dioxo-2,3,6,7-tetrahydro-1H-purin-8-yl]thio}butanoate], the melting point is 101 °C.

In the case of `CCOC(=O)C(CC)Sc1nc2c(c(=O)n(CC#N)c(=O)n2C)n1Cc1cccc(Br)c1` (racemic) [Compound 7, ethyl 2-{[7-(3-bromobenzyl)-1-(cyanomethyl)-3-methyl-2,6-dioxo-2,3,6,7-tetrahydro-1H-purin-8-yl]thio}butanoate], the melting point was 84 °C.

Compound `C#CCn1c(=O)c2c(nc(SC(CC)C(=O)OCC)n2Cc2cccc(Br)c2)n(C)c1=O` (racemic) [Compound 11, ethyl 2-{[7-(3-bromobenzyl)-3-methyl-2,6-dioxo-1-(2-propynyl)-2,3,6,7-tetrahydro-1H-purin-8-yl]thio}butanoate] returned a melting point of 97 °C.

Compound `CCOC(=O)C(CC)Sc1nc2c(c(=O)[nH]c(=O)n2C)n1Cc1cccc(OC)c1` (racemic) [Compound 12, ethyl 2-{[7-(3-methoxybenzyl)-3-methyl-2,6-dioxo-2,3,6,7-tetrahydro-1H-purin-8-yl]thio}butanoate] showed a melting point of 115 °C.

As to `CCOC(=O)C(CC)Sc1nc2c(c(=O)[nH]c(=O)n2C)n1Cc1cccc([N+](=O)[O-])c1` (racemic) [Compound 13, ethyl 2-{[3-methyl-7-(3-nitrobenzyl)-2,6-dioxo-2,3,6,7-tetrahydro-1H-purin-8-yl]thio}butanoate], the melting point came to 147 °C.

`CCOC(=O)C(CC)Sc1nc2c(c(=O)[nH]c(=O)n2C)n1Cc1cccc(N)c1` (racemic) [Compound 14, ethyl 2-{[7-(3-aminobenzyl)-3-methyl-2,6-dioxo-2,3,6,7-tetrahydro-1H-purin-8-yl]thio}butanoate] returned a melting point of 107 °C.

With `CCOC(=O)C(CC)Sc1nc2c(c(=O)[nH]c(=O)n2C)n1Cc1ccc(S(N)(=O)=O)cc1` (racemic) [Compound 15, ethyl 2-({7-[4-(aminosulfonyl)benzyl]-3-methyl-2,6-dioxo-2,3,6,7-tetrahydro-1H-purin-8-yl}thio)butanoate], the melting point was 175.2 °C.

Take `CCOC(=O)C(CC)Sc1nc2c(c(=O)[nH]c(=O)n2C)n1Cc1c(C)noc1C` (racemic) [Compound 20, ethyl 2-({7-[(3,5-dimethylisoxazol-4-yl)methyl]-3-methyl-2,6-dioxo-2,3,6,7-tetrahydro-1H-purin-8-yl}thio)butanoate]: the melting point turned out to be 208 °C.

As to `CCOC(=O)C(CC)Sc1nc2c(c(=O)[nH]c(=O)n2C)n1Cc1ccc([N+](=O)[O-])o1` (racemic) [Compound 21, ethyl 2-({3-methyl-7-[(5-nitro-2-furyl)methyl]-2,6-dioxo-2,3,6,7-tetrahydro-1H-purin-8-yl}thio)butanoate], the melting point amounted to 172 °C.

`CCCCn1c(SC(CC)C(=O)OCC)nc2c1c(=O)[nH]c(=O)n2C` (racemic) [Compound 22, ethyl 2-[(7-butyl-3-methyl-2,6-dioxo-2,3,6,7-tetrahydro-1H-purin-8-yl)thio]butanoate] displayed a melting point of 104 °C.

Turning to `CCCCCCn1c(SC(CC)C(=O)OCC)nc2c1c(=O)[nH]c(=O)n2C` (racemic) [Compound 25, ethyl 2-[(7-hexyl-3-methyl-2,6-dioxo-2,3,6,7-tetrahydro-1H-purin-8-yl)thio]butanoate], the melting point came out at 87 °C.

For `CCC(Sc1nc2c(c(=O)[nH]c(=O)n2C)n1Cc1cccc(Br)c1)C(N)=O` (racemic) [Compound 27, 2-{[7-(3-bromobenzyl)-3-methyl-2,6-dioxo-2,3,6,7-tetrahydro-1H-purin-8-yl]thio}butanamide], the melting point was 244.15 °C.

With `CCCCn1c(SC(CC)C(N)=O)nc2c1c(=O)[nH]c(=O)n2C` (racemic) [Compound 28, 2-[(7-butyl-3-methyl-2,6-dioxo-2,3,6,7-tetrahydro-1H-purin-8-yl)thio]butanamide], the melting point was found to be 253 °C.

As for `CCOC(=O)C(CC)Sc1nc2c(c(=O)[nH]c(=O)n2C)n1CC(C)C` (racemic) [Compound 31, ethyl 2-[(7-isobutyl-3-methyl-2,6-dioxo-2,3,6,7-tetrahydro-1H-purin-8-yl)thio]butanoate], the melting point came out at 132 °C.

Compound `CCC(CC)Sc1nc2c(c(=O)[nH]c(=O)n2C)n1Cc1cccc(Br)c1` [Compound 29, 7-(3-bromobenzyl)-8-[(1-ethylpropyl)thio]-3-methyl-3,7-dihydro-1H-purine-2,6-dione] returned a melting point of 167 °C.
